Experimental data taken from patent publication US20150047066A1, “PLANT HAVING INCREASED RESISTANCE OR SUSCEPTIBILITY TO 4-HPPD INHIBITOR” (TOYAMA PREFECTURE, priority 2010, published 2015).

Experiments:
[1] = system: rice recombinants (Kanto 239) having the target gene (AK065581) introduced therein; assay: Triketone type 4-HPPD inhibitor resistance assay on rice recombinants (T1/T2 seeds, HIS1) on agar medium; type: in vivo
Procedure: (§1) For transformation of rice, a BBC susceptible rice cultivar Kanto 239 was used, and the method described in “Taniguchi et al., Plant Cell Rep., 2010, vol. 29, iss. 11, pp. 1287 to 1295” was performed with some modification. Specifically, first, sterilized mature seeds were sown on an N6D medium. After culturing at 30° C. for 7 days, the seeds were infected with Agrobacterium, and co-cultured in an acetosyringone (AS)-containing N6 medium (2N6-AS medium) under a dark condition at 25° C. for 3 days. Thereafter, the infected tissues were cultured in a carbenicillin-containing N6D medium for 4 to 6 weeks (18 hours day length) in the presence of 40 mg/L hygromycin (Hyg), and Hyg-tolerant calli were re-differentiated.
Rice recombinants (T1 and T2 generations) were produced and subjected to a resistance assay with triketone type 4-HPPD inhibitors, that is, mesotrione, tefuryltrione, tembotrione, and NTBC, using commercially-available reagents at concentrations to be described later.
Furthermore, recombinants were prepared by introducing the target gene into the BBC susceptible rice cultivar “Kanto 239” that would be whitened by an agar medium containing 0.1 μM BBC, and T1 seeds or T2 seeds were obtained. These were seeded on an agar medium containing 2 μM BBC, and the growth state of the recombinants was examined. […] Moreover, the seeds were seeded on an agar medium containing 1 μM mesotrione, 2.5 μM tefuryltrione, 0.5 μM tembotrione, or 1 μM NTBC, and the growth state of the recombinants was examined. FIGS. 12 to 15 show the obtained results.

[2] = system: rice recombinants (Kanto 239) having the target gene (AK065581) introduced therein; assay: BBC resistance assay on rice recombinants (T0, HIS1) in composted soil; type: in vivo; conditions: HIS1 recombinants T0 generation, composted soil treated with BBC at 300 ga.i./ha
Procedure: as §1
Further, recombinants (TO generation) were prepared by introducing the target gene into the BBC susceptible rice cultivar “Kanto 239” that would be whitened by an agar medium containing 0.1 μM BBC, and the growth state of the recombinants was examined in composted soil treated with BBC at 300 ga.i./ha.

[3] = system: BBC resistant cultivar Nipponbare; assay: BBC whitening of resistant rice cultivar on agar medium; type: in vivo
KHSL04 = assay: BBC susceptibility of Koshihikari/Habataki chromosome segment substitution lines (QTL analysis); type: in vivo, rice; conditions: KHSL04, short arm region of chromosome 2 substituted with Habataki type
Procedure: A Koshihikari/Habataki chromosome segment substitution line and Tachisugata//Tachisugata/Momiroman BC1F4 were tested. Specifically, Koshihikari/Habataki chromosome segment substitution lines (KHSL) were analyzed, in which a portion of chromosome fragments of a resistant cultivar Koshihikari serving as the genetic background was substituted with a chromosome of an indica type susceptible cultivar Habataki. Note that KHSL consists of 32 lines, and enables analysis on all of the whole 12 chromosomes of Habataki (as to KHSL, see Kazumasa Murata et al., “Development and evaluation of CSSLs carrying overlapping chromosome segments of rice cultivar Habataki in a genetic background of cultivar Koshihikari, ” Breeding Research, Mar. 27, 2009, vol. 11, supplement issue 1, p. 66). In addition, 94 BC1F4 lines obtained by one-time backcrossing of a resistant cultivar Tachisugata to a susceptible cultivar Momiroman were analyzed using 80 SSR markers (as to the SSR markers used, see “Development and mapping of 2240 new SSR markers for rice (Oryza sativa L.)”, DNA Res, 2002, vol. 9, iss. 6, pp. 199 to 207, and http://www.gramene.org/).
Accordingly, the QTL analysis was performed as described above on the Koshihikari/Habataki chromosome segment substitution lines (KHSL) using the BBC resistant rice cultivar “Koshihikari” and the susceptible rice cultivar “Habataki”.

[4] = system: Tos17-inserted lines of Nipponbare; assay: Linkage analysis of BBC susceptibility in Tos17-inserted lines; type: in vivo, rice; conditions: all progenies of six Tos17-inserted homozygous individuals
Description: A retrotransposon Tos17 discovered in rice is activated by tissue culture, and its copies are transposed into a genome. It is known that when the transposition site is inside a gene, the gene is to be disrupted, causing a mutation (see Hirochika et al., Proc. Natl. Acad. Sci. USA, 1996, vol. 93, pp. 7783 to 7788). The present Examples utilized a rice population having accumulated mutations caused by tissue culture utilizing the phenomenon (mutant panel, database name: Tos17 mutant panel database (http://tos.nias.affrc.go.jp/ to miyao/pub/tos17/)). From the Tos17 mutant panel database, two lines were selected, in each of which Tos17 was inserted in a transcription site of a hypothetical gene of an iron/ascorbate oxidoreductase gene, which was strongly suspected of being associated with BBC susceptibility located at a gene locus specified by the QTL analysis. Then, self-fertilized seeds obtained by planting 15 individuals of each of these two lines were used to examine phenotype (BBC susceptibility) and genotype (Tos17 insertion).
Although the original cultivar “Nipponbare” of the Tos17-inserted lines is a BBC resistant cultivar, BBC susceptible individuals are derived from the lines having Tos17 inserted in the transcription site of the target gene. […]

[5] = system: BBC susceptible rice cultivar Kanto 239; assay: BBC whitening of wildtype susceptible rice on agar medium; type: in vivo; conditions: Kanto 239 wildtype, agar medium containing 0.1 μM BBC
Procedure: Whether or not a protein encoded by a particular gene has an activity of providing a plant with resistance to a 4-HPPD inhibitor can be determined, for example, by introducing the gene into a plant, and assaying whether or not the plant thus produced is provided with the resistance as described in Examples later (see Example 2). Specifically, in a case of using A. thaliana (ecotype Columbia) that would be whitened by an agar medium containing 0.03 μM BBC, if a transformant produced by introducing the gene into A. thaliana can grow without being whitened in the presence of BBC at the above concentration, the protein encoded by the gene can be determined to have an activity of providing a plant with resistance to a 4-HPPD inhibitor. Moreover, in a case of using a BBC susceptible rice cultivar “Kanto 239” that would be whitened by an agar medium containing 0.1 μM BBC, if a transformant produced by introducing the gene into Kanto 239 can grow without being whitened in the presence of BBC at the above concentration, the protein encoded by the gene can be determined to have an activity of providing a plant with resistance to a 4-HPPD inhibitor. […]

[6] = system: Momiroman, Takanari, Kasalath; assay: BBC susceptibility level of susceptible rice cultivars; type: in vivo; conditions: Momiroman and Takanari in comparison with Kasalath
[7] = system: A. thaliana recombinants having the target gene introduced therein; assay: BBC resistance assay on A. thaliana recombinants (T2) having the target gene (AK065581, HIS1) introduced; type: in vivo, Arabidopsis thaliana; conditions: HIS1 recombinants T2 generation, agar medium containing 0.03 μM BBC
Procedure: For transformation of A. thaliana, ecotype “Columbia” was used, and a Floral dip method was performed (see Weigel and Glazebrook, Arabidopsis, a laboratory manual, Cold Spring Harbor Laboratory Press (2002) p131-132). Specifically, first, Agrobacterium was shake-cultured in a liquid medium (LB or YEB) containing an antibiotic. Approximately 16 hours later, 2 ml of the culture solution was added to a liquid medium (LB or YEB) containing an antibiotic, and further shake-cultured. Then, the culture solution obtained approximately 16 hours thereafter was centrifuged at 8000 rpm at 4° C. for 10 minutes. The supernatant liquid was discarded, and the resulting precipitate was suspended in 500 ml of a solution containing 5% sucrose. Subsequently, immediately before the transformation, a transformation reagent silwet (registered trademark: SILWET L-77, product number: BMS-SL7755, manufactured by Bio Medical Science Inc.) was added thereto at a final concentration of 0.025%. Then, into the Agrobacterium suspension thus obtained, Arabidopsis from which already flowered and pollinated buds had been removed was dipped for 30 to 120 seconds. Thereafter, the plants were left standing for 16 hours and then grown to obtain the seeds. […]

[8] = system: A. thaliana (ecotype Columbia); assay: BBC whitening of wildtype A. thaliana on agar medium; type: in vivo, Arabidopsis thaliana; conditions: agar medium containing 0.03 μM BBC
Procedure: Whether or not a protein encoded by a particular gene has an activity of providing a plant with resistance to a 4-HPPD inhibitor can be determined, for example, by introducing the gene into a plant, and assaying whether or not the plant thus produced is provided with the resistance as described in Examples later (see Example 2). Specifically, in a case of using A. thaliana (ecotype Columbia) that would be whitened by an agar medium containing 0.03 μM BBC, if a transformant produced by introducing the gene into A. thaliana can grow without being whitened in the presence of BBC at the above concentration, the protein encoded by the gene can be determined to have an activity of providing a plant with resistance to a 4-HPPD inhibitor. Moreover, in a case of using a BBC susceptible rice cultivar “Kanto 239” that would be whitened by an agar medium containing 0.1 μM BBC, if a transformant produced by introducing the gene into Kanto 239 can grow without being whitened in the presence of BBC at the above concentration, the protein encoded by the gene can be determined to have an activity of providing a plant with resistance to a 4-HPPD inhibitor.

[9] = system: tomato cultivar Micro-Tom; assay: Germination of tomato seeds on BBC agar medium; type: in vivo; conditions: Micro-Tom seeds germinated on agar medium containing 0.3 μM BBC, 25° C., approximately 2 weeks
Procedure: For transformation of tomatoes, a cultivar “Micro-Tom” was tested, and an Agrobacterium method was performed using vectors (35SHIS1pZK3, 35SHSL1pZK3) shown in FIGS. 5 and 7. Note that when seeds of the original cultivar Micro-Tom were germinated on an agar medium containing 0.3 μM benzobicyclon (BBC) using an incubator at 25° C., it was clearly observed approximately 2 weeks later that leaf parts thereof were whitened.

[10] = system: rice recombinants (Kanto 239) having the homologous gene (HSL1; AK241948) introduced therein; assay: BBC resistance assay on rice recombinants having the HSL1 gene (AK241948) on agar medium; type: in vivo; conditions: agar medium containing 0.12 μM BBC
Procedure: as §1
Specifically, recombinants were prepared by introducing the target gene into the BBC susceptible rice cultivar “Kanto 239” that would be whitened by an agar medium containing 0.1 μM BBC, and T1 seeds or T2 seeds were obtained. These were seeded on an agar medium containing 0.12 μM BBC, and the growth state of the recombinants was examined.

## O=C1CCCC(=O)C1C(=O)c1ccc(C(F)(F)F)cc1[N+](=O)[O-] [NTBC, 2-(2-nitro-4-trifluoromethylbenzoyl)cyclohexane-1,3-dione]
[1]; agar medium treated with 1 μM NTBC
  growth state of the recombinants: grew without being whitened

## CS(=O)(=O)c1ccc(C(=O)C2C(=O)CCCC2=O)c([N+](=O)[O-])c1 [mesotrione]
[1]; agar medium treated with 1 μM mesotrione
  growth state of the recombinants: grew without being whitened

## CS(=O)(=O)c1ccc(C(=O)C2C(=O)CCCC2=O)c(Cl)c1COCC(F)(F)F [tembotrione]
[1]; agar medium treated with 0.5 μM tembotrione
  growth state of the recombinants: grew without being whitened

## CS(=O)(=O)c1ccc(C(=O)C2C(=O)CCCC2=O)c(Cl)c1COCC1CCCO1 (stereo not shown) [tefuryltrione]
[1]; agar medium treated with 2.5 μM tefuryltrione
  growth state of the recombinants: grew without being whitened

## CS(=O)(=O)c1ccc(C(=O)C2=C(Sc3ccccc3)C3CCC(C3)C2=O)c(Cl)c1 (stereo not shown) [BBC, benzobicyclon]
[2]
  growth state of the recombinants: grew without being whitened
[3]; 0.12 μM BBC
  whitening of the plant: not whitened
[3]; agar medium 2 μM BBC
  whitening of the plant: sufficient to whiten
KHSL04
  BBC susceptibility: showed susceptibility
[4]
  phenotype (BBC susceptibility): showed BBC susceptibility
[5]
  whitening of the plant: whitened
[6]
  degree of BBC susceptibility: high BBC susceptibility
[7]
  growth state of the recombinants: grew without being whitened
[8]
  whitening of the plant: whitened
[9]
  whitening of leaf parts: whitened
[1]; agar medium treated with 2 μM BBC
  growth state of the recombinants: grew without being whitened
[10]
  growth state of the recombinants: grew without being whitened
